Type in all cases: functional
The species entered for assay [1] is Mus musculus. The assay can be described thus: Inhibition of the increase of the rate of CK release induced by […] of Bothrops jararacussu venom on isolated EDL mouse muscles after 60 min of exposure at 0.1-30 uM.
For assay [2], the species on record is Mus musculus. Description: Inhibition of the increase of the rate of CK release induced by […] of Bothrops jararacussu venom on isolated EDL mouse muscles after 60 min of exposure at 10-30 uM.
The species named for assay [3] is Mus musculus. The assay can be described thus: Inhibition of the increase of the rate of CK release induced by […] of Bothrops jararacussu venom on isolated EDL mouse muscles after 60 min of exposure at 0.1-1.0 uM.
The species entered for assay [4] is Mus musculus. The assay can be described thus: Inhibition of the increase of the rate of CK release induced by […] of Bothrops jararacussu venom on isolated EDL mouse muscles after 60 min of exposure at 0.1-10 uM.

In turn, `Oc1ccc2c(c1)OC[C@H]1c3cc4c(c(Cc5ccccc5)c3O[C@@H]21)OCO4` came in with an Inhibition in the assay listed under Mus musculus [1] of 0%.

In turn, `CC(C)=CCc1c2c(cc3c1O[C@H]1c4ccc(O)c(CC=C(C)C)c4OC[C@@H]31)OCO2` showed an Inhibition in the assay filed under Mus musculus [1] of 0%.

As to `CC(C)=CCc1c(O)ccc2c1OC[C@H]1c3cc4c(cc3O[C@@H]21)OCO4`, the Inhibition is 0% in the assay listed under Mus musculus [2] and above 40% in the assay filed under Mus musculus [3].

`CC(C)=CCc1c2c(cc3c1O[C@H]1c4ccc(O)cc4OC[C@@H]31)OCO2` came in with an Inhibition in the assay listed under Mus musculus [1] of 0%.

In turn, `Oc1ccc2c(c1Cc1ccccc1)OC[C@H]1c3cc4c(cc3O[C@@H]21)OCO4` came in with an Inhibition in the assay listed under Mus musculus [4] above 70%.

In the case of `Oc1ccc2c(c1Cc1ccccc1)OC[C@H]1c3cc4c(c(Cc5ccccc5)c3O[C@@H]21)OCO4`, in the assay filed under Mus musculus [1], the Inhibition was 0%.

In the case of `Oc1ccc2c(c1)OC[C@H]1c3cc4c(cc3O[C@@H]21)OCO4` [MAACKIAIN], the Inhibition in the assay filed under Mus musculus [1] was determined as 0%.

The values above are taken from ChEMBL document CHEMBL1137937, “Synthesis and pharmacological evaluation of prenylated and benzylated pterocarpans against snake venom” (2004).
